From BindingDB's records for doi:10.1021/acs.jmedchem.9b00966 (2019)

Tests used:
[1] = Reversal of P-gp mediated multidrug resistance in human DU145-TxR cells overexpressing P-gp assessed as potentiation of paclitaxel-induced cytotoxicity by measuring paclitaxel IC50 at 5 uM after 48 hrs by MTT assay (Rvb = 2120 nM)
[2] = Reversal of P-gp mediated multidrug resistance in human DU145-TxR cells overexpressing P-gp assessed as potentiation of paclitaxel-induced cytotoxicity by measuring paclitaxel IC50 at 3 uM after 48 hrs by MTT assay (Rvb = 2120 nM)
[3] = Reversal of P-gp mediated multidrug resistance in human DU145-TxR cells overexpressing P-gp assessed as potentiation of paclitaxel-induced cytotoxicity by measuring paclitaxel IC50 at 10 uM after 48 hrs by MTT assay (Rvb = 2120 nM)
[4] = Reversal of P-gp mediated multidrug resistance in human DU145-TxR cells overexpressing P-gp assessed as potentiation of paclitaxel-induced cytotoxicity by measuring paclitaxel IC50 at 7 uM after 48 hrs by MTT assay (Rvb = 2120 nM)

Row | SMILES | IC50 [1] [nM] | IC50 [2] [nM] | IC50 [3] [nM] | IC50 [4] [nM]
1 | Cc1cc(C)c(-c2cc(NC(=O)CSCC(=O)NC(c3ccccc3)c3ccccc3)n(-c3ccccc3)n2)cc1C | 56 | 160 | 11 | 16
2 | Cc1cc(C)c(-c2cc(NC(=O)CSc3n[nH]c(C4CC4)n3)n(-c3ccccc3)n2)cc1C | 194 | 629 | 21 | 59
3 | Cc1cc(C)c(-c2cc(NC(=O)CSCC(=O)NC34CC5CC(CC(C5)C3)C4)n(-c3ccccc3)n2)cc1C | 109 | 231 | 13 | 21
4 | Cc1cc(C)c(-c2cc(NC(=O)CSCC(=O)Nc3ccc4ncsc4c3)n(-c3ccccc3)n2)cc1C | 5.7 | 172 | 0.78 | 2.9
5 | Cc1cc(C)c(-c2cc(NC(=O)CSCC(=O)c3ccc4c(c3)Cc3ccccc3-4)n(-c3ccccc3)n2)cc1C | 154 | 266 | 57 | 62
6 | Cc1cc(C)c(-c2cc(NC(=O)CSCC(=O)N3c4ccccc4CCc4ccccc43)n(-c3ccccc3)n2)cc1C | 52 | 164 | 4 | 6
7 | Cc1cc(C)c(-c2cc(NC(=O)CSCC(=O)Nc3ccc4ccccc4c3)n(-c3ccccc3)n2)cc1C | 46 | 153 | 2 | 7
8 | Cc1cc(C)c(-c2cc(NC(=O)CSc3cccc(NC(=O)c4cncc(Br)c4)c3)n(-c3ccccc3)n2)cc1C | 20 | 56 | 6 | 9
9 | COc1cc(NC(=O)CSCC(=O)Nc2cc(-c3cc(C)c(C)cc3C)nn2-c2ccccc2)cc(OC)c1OC | 1.9 | 185 | 0.07 | 0.64
10 | Cc1cc(C)c(-c2cc(NC(=O)CSc3nnc4c(n3)[nH]c3ccccc34)n(-c3ccccc3)n2)cc1C | 21 | 426 | 17 | 17
11 | Cc1cc(C)c(-c2cc(NC(=O)CSCC(=O)NCc3ccc(F)cc3)n(-c3ccccc3)n2)cc1C | 379 | 458 | 131 | 192
